Assay results as given in publication PMC6979384, “Characterization of the plant homeodomain (PHD) reader family for their histone tail interactions” (Epigenetics & Chromatin, 2020).

Legend:
Assay in all cases: Histone peptide microarray
Type in all cases: binding, human
[1] = test system: AIRE (PP); settings: AIRE (PP); sheet "Array Heatmap"; each array performed twice, total n = 4
Procedure, shortened: (§1)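 GST-PHD reader, 0.5 μM, probed on 293-peptide histone array (single/combinatorial PTMs); optimized array protocol; signal = mean ± SD, n = 4.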

[2] = test system: BAZ2B; settings: BAZ2B; sheet "Array Heatmap"; each array performed twice, total n = 4
Procedure, shortened: as §1

[3] = test system: BPTF (PB); settings: BPTF (PB); sheet "Array Heatmap"; each array performed twice, total n = 4
Procedure, shortened: as §1

[4] = test system: CHD4 (PPCC); settings: CHD4 (PPCC); sheet "Array Heatmap"; each array performed twice, total n = 4
Procedure, shortened: as §1

[5] = test system: CHD5 (PCC); settings: CHD5 (PCC); sheet "Array Heatmap"; each array performed twice, total n = 4
Procedure, shortened: as §1

[6] = test system: CHD5 (PPCC); settings: CHD5 (PPCC); sheet "Array Heatmap"; each array performed twice, total n = 4
Procedure, shortened: as §1

[7] = test system: DIDO1; settings: DIDO1; sheet "Array Heatmap"; each array performed twice, total n = 4
Procedure, shortened: as §1

[8] = test system: DPF2 (PPC2W2); settings: DPF2 (PPC2W2); sheet "Array Heatmap"; each array performed twice, total n = 4
Procedure, shortened: as §1

[9] = test system: ING1; settings: ING1; sheet "Array Heatmap"; each array performed twice, total n = 4
Procedure, shortened: as §1

[10] = test system: ING2; settings: ING2; sheet "Array Heatmap"; each array performed twice, total n = 4
Procedure, shortened: as §1

[11] = test system: ING3; settings: ING3; sheet "Array Heatmap"; each array performed twice, total n = 4
Procedure, shortened: as §1

[12] = test system: ING4; settings: ING4; sheet "Array Heatmap"; each array performed twice, total n = 4
Procedure, shortened: as §1

[13] = test system: ING5; settings: ING5; sheet "Array Heatmap"; each array performed twice, total n = 4
Procedure, shortened: as §1

[14] = test system: KDM4C (TTP); settings: KDM4C (TTP); sheet "Array Heatmap"; each array performed twice, total n = 4
Procedure, shortened: as §1

[15] = test system: KDM5A (1); settings: KDM5A (1); sheet "Array Heatmap"; each array performed twice, total n = 4
Procedure, shortened: as §1

[16] = test system: KDM5A (3); settings: KDM5A (3); sheet "Array Heatmap"; each array performed twice, total n = 4
Procedure, shortened: as §1

[17] = test system: KDM5B (1); settings: KDM5B (1); sheet "Array Heatmap"; each array performed twice, total n = 4
Procedure, shortened: as §1

[18] = test system: KDM5B (3); settings: KDM5B (3); sheet "Array Heatmap"; each array performed twice, total n = 4
Procedure, shortened: as §1

[19] = test system: KDM7A; settings: KDM7A; sheet "Array Heatmap"; each array performed twice, total n = 4
Procedure, shortened: as §1

[20] = test system: MLL5; settings: MLL5; sheet "Array Heatmap"; each array performed twice, total n = 4
Procedure, shortened: as §1

[21] = test system: MORC3 (CW); settings: MORC3 (CW); sheet "Array Heatmap"; each array performed twice, total n = 4
Procedure, shortened: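 Readout is array binding signal, reported as the mean and standard deviation over four replicates. Each purified GST-fused PHD domain was incubated at 0.5 μM with a library of 293 modified histone peptides.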

[22] = test system: PHF13; settings: PHF13; sheet "Array Heatmap"; each array performed twice, total n = 4
Procedure, shortened: as §1

[23] = test system: PHF21A; settings: PHF21A; sheet "Array Heatmap"; each array performed twice, total n = 4
Procedure, shortened: as §1

[24] = test system: PHF23; settings: PHF23; sheet "Array Heatmap"; each array performed twice, total n = 4
Procedure, shortened: as §1

[25] = test system: PHF2; settings: PHF2; sheet "Array Heatmap"; each array performed twice, total n = 4
Procedure, shortened: as §1

[26] = test system: PHF8; settings: PHF8; sheet "Array Heatmap"; each array performed twice, total n = 4
Procedure, shortened: as §1

[27] = test system: PHRF1 (RP); settings: PHRF1 (RP); sheet "Array Heatmap"; each array performed twice, total n = 4
Procedure, shortened: as §1

[28] = test system: RAG2; settings: RAG2; sheet "Array Heatmap"; each array performed twice, total n = 4
Procedure, shortened: as §1

[29] = test system: SP140L; settings: SP140L; sheet "Array Heatmap"; each array performed twice, total n = 4
Procedure, shortened: as §1

[30] = test system: TAF3; settings: TAF3; sheet "Array Heatmap"; each array performed twice, total n = 4
Procedure, shortened: as §1

[31] = test system: TRIM66 (PB); settings: TRIM66 (PB); sheet "Array Heatmap"; each array performed twice, total n = 4
Procedure, shortened: as §1

H2BK12ac: H2B 1-24 [Peptide H2BK12ac]
Array Heatmap value (peptide array signal) [1]: 0.3561 | Array Heatmap value (peptide array signal) [2]: 0.3626 | Array Heatmap value (peptide array signal) [3]: 0.2975 | Array Heatmap value (peptide array signal) [4]: 0.55 | Array Heatmap value (peptide array signal) [5]: 0.7553 | Array Heatmap value (peptide array signal) [6]: 0.4364 | Array Heatmap value (peptide array signal) [7]: 0.6693 | Array Heatmap value (peptide array signal) [8]: 0.6335 | Array Heatmap value (peptide array signal) [9]: 0.4874 | Array Heatmap value (peptide array signal) [10]: 0.5927 | Array Heatmap value (peptide array signal) [11]: 0.413 | Array Heatmap value (peptide array signal) [12]: 0.3767 | Array Heatmap value (peptide array signal) [13]: 0.2703 | Array Heatmap value (peptide array signal) [14]: 0.3788 | Array Heatmap value (peptide array signal) [15]: 0.3805 | Array Heatmap value (peptide array signal) [16]: 0.4192 | Array Heatmap value (peptide array signal) [17]: 0.5631 | Array Heatmap value (peptide array signal) [18]: 0.4029 | Array Heatmap value (peptide array signal) [19]: 0.2936 | Array Heatmap value (peptide array signal) [20]: 0.5021 | Array Heatmap value (peptide array signal) [21]: 0.3313 | Array Heatmap value (peptide array signal) [22]: 0.5184 | Array Heatmap value (peptide array signal) [23]: 0.4277 | Array Heatmap value (peptide array signal) [24]: 0.4647 | Array Heatmap value (peptide array signal) [25]: 0.5083 | Array Heatmap value (peptide array signal) [26]: 0.311 | Array Heatmap value (peptide array signal) [27]: 0.4148 | Array Heatmap value (peptide array signal) [28]: 0.2122 | Array Heatmap value (peptide array signal) [29]: 0.3291 | Array Heatmap value (peptide array signal) [30]: 0.2326 | Array Heatmap value (peptide array signal) [31]: 0.5657
